Measurements as given in patent US20250101023A1, “HETEROARYL DERIVATIVE AND USES THEREOF” (IUCF-HYU (INDUSTRY-UNIVERSITY COOPERATION FOUNDATION …, priority 2022, published 2025).

Experiments:
Experiment in all cases: Kinome-wide profiling
Type in all cases: biochemical
Settings in all cases: read-out: % Residual Activity (mean)
STK21/CIT = STK21/CIT (Homo sapiens (Human), UniProt O14578)
WNK3 = WNK3 (Homo sapiens (Human), UniProt Q9BYP7)
PLK1 = PLK1 (Homo sapiens (Human), UniProt P53350)
DCAMKL1 = DCAMKL1 (Homo sapiens (Human), UniProt O15075)
SIK1 = SIK1 (Homo sapiens (Human), UniProt P57059)
CDK2/cyclin E2 = CDK2/cyclin E2 (Homo sapiens (Human), UniProt P24941)
EPHA1 = EPHA1 (Homo sapiens (Human), UniProt P21709)
PASK = PASK (Homo sapiens (Human), UniProt Q96RG2)
SYK = SYK (Homo sapiens (Human), UniProt P43405)
PKCIOTA = PKCIOTA (Homo sapiens (Human), UniProt P41743)
EPHA2 = EPHA2 (Homo sapiens (Human), UniProt P29317)
EPHB3 = EPHB3 (Homo sapiens (Human), UniProt P54753)
ARAF = ARAF (Homo sapiens (Human), UniProt P10398)
CK1d = CK1d (Homo sapiens (Human), UniProt P48730)
MST3/STK24 = MST3/STK24 (Homo sapiens (Human), UniProt Q9Y6E0)
SGK3/SGKL = SGK3/SGKL (Homo sapiens (Human), UniProt Q96BR1)
FMS = FMS (Homo sapiens (Human), UniProt P07333)
ULK2 = ULK2 (Homo sapiens (Human), UniProt Q8IYT8)
Aurora B = Aurora B (Homo sapiens (Human), UniProt Q96GD4)
DYRK2 = DYRK2 (Homo sapiens (Human), UniProt Q92630)
FES/FPS = FES/FPS (Homo sapiens (Human), UniProt P07332)
PKCb1 = PKCb1 (Homo sapiens (Human), UniProt P05771)
CDK6/cyclin D2 = CDK6/cyclin D2 (Homo sapiens (Human), UniProt Q00534)
VRK1 = VRK1 (Homo sapiens (Human), UniProt Q99986)
MRCKb/CDC42BPB = MRCKb/CDC42BPB (Homo sapiens (Human), UniProt Q9Y5S2)
AKT1 = AKT1 (Homo sapiens (Human), UniProt P31749)
CTK/MATK = CTK/MATK (Homo sapiens (Human), UniProt P42679)
MRCKa/CDC42BPA = MRCKa/CDC42BPA (Homo sapiens (Human), UniProt Q5VT25)
PAK1 = PAK1 (Homo sapiens (Human), UniProt Q13153)
GRK2 = GRK2 (Homo sapiens (Human), UniProt P25098)
CDK2/CYCLIN E = CDK2/CYCLIN E (Homo sapiens (Human), UniProt P24941)
DMPK2 = DMPK2 (Homo sapiens (Human), UniProt Q6DT37)
STK38L/NDR2 = STK38L/NDR2 (Homo sapiens (Human), UniProt Q9Y2H1)
LKB1 = LKB1 (Homo sapiens (Human), UniProt Q15831)
PHKg2 = PHKg2 (Homo sapiens (Human), UniProt P15735)
BRK = BRK (Homo sapiens (Human), UniProt Q13882)
STK32C/YANK3 = STK32C/YANK3 (Homo sapiens (Human), UniProt Q86UX6)
GRK6 = GRK6 (Homo sapiens (Human), UniProt P43250)
SGK1 = SGK1 (Homo sapiens (Human), UniProt O00141)
Sequence of SGK1 (O00141 whole entry): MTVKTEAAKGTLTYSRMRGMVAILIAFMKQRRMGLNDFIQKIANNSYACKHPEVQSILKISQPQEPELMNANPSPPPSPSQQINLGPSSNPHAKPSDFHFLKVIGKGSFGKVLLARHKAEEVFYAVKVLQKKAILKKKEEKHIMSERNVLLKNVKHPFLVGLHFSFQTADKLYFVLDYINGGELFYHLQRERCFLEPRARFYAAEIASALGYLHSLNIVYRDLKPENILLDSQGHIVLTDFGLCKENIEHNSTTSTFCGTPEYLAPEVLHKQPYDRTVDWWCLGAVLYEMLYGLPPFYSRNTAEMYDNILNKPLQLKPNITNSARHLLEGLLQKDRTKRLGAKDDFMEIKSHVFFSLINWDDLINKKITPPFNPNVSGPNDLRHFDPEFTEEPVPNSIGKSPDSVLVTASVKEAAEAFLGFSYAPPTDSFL

Sequence of CK1d (P48730 whole entry): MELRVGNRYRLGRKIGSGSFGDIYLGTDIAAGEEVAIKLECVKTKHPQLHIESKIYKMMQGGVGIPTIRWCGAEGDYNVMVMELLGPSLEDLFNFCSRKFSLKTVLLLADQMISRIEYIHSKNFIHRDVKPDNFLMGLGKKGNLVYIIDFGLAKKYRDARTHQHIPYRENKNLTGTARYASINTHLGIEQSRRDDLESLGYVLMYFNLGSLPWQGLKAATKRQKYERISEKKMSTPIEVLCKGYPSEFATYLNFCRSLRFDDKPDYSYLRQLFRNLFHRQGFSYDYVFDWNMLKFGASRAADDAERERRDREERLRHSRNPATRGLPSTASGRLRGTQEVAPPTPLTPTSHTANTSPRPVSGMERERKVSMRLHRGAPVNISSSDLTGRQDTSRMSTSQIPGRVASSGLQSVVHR
Sequence of SIK1 (P57059 whole entry): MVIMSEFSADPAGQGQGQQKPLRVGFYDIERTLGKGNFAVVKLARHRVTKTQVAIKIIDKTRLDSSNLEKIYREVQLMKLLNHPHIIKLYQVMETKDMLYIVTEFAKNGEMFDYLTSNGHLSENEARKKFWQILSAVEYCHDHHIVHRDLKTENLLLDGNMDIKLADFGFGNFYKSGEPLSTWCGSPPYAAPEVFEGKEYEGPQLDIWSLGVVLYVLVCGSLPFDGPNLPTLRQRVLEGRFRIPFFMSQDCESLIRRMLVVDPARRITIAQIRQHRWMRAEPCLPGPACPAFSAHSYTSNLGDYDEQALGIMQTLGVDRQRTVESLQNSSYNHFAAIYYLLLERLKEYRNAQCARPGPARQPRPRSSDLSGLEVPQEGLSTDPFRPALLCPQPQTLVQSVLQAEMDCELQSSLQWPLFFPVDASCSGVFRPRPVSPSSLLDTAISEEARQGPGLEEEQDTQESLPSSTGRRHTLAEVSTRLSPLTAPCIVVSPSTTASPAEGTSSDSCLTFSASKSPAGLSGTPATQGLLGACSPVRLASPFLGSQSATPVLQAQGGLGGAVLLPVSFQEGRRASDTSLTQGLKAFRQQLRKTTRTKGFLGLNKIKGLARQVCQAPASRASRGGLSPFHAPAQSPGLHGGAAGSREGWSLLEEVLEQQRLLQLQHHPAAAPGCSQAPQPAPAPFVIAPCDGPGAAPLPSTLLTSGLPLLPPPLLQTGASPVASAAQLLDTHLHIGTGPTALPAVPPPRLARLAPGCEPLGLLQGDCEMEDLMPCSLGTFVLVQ
Sequence of MRCKb/CDC42BPB (Q9Y5S2 whole entry): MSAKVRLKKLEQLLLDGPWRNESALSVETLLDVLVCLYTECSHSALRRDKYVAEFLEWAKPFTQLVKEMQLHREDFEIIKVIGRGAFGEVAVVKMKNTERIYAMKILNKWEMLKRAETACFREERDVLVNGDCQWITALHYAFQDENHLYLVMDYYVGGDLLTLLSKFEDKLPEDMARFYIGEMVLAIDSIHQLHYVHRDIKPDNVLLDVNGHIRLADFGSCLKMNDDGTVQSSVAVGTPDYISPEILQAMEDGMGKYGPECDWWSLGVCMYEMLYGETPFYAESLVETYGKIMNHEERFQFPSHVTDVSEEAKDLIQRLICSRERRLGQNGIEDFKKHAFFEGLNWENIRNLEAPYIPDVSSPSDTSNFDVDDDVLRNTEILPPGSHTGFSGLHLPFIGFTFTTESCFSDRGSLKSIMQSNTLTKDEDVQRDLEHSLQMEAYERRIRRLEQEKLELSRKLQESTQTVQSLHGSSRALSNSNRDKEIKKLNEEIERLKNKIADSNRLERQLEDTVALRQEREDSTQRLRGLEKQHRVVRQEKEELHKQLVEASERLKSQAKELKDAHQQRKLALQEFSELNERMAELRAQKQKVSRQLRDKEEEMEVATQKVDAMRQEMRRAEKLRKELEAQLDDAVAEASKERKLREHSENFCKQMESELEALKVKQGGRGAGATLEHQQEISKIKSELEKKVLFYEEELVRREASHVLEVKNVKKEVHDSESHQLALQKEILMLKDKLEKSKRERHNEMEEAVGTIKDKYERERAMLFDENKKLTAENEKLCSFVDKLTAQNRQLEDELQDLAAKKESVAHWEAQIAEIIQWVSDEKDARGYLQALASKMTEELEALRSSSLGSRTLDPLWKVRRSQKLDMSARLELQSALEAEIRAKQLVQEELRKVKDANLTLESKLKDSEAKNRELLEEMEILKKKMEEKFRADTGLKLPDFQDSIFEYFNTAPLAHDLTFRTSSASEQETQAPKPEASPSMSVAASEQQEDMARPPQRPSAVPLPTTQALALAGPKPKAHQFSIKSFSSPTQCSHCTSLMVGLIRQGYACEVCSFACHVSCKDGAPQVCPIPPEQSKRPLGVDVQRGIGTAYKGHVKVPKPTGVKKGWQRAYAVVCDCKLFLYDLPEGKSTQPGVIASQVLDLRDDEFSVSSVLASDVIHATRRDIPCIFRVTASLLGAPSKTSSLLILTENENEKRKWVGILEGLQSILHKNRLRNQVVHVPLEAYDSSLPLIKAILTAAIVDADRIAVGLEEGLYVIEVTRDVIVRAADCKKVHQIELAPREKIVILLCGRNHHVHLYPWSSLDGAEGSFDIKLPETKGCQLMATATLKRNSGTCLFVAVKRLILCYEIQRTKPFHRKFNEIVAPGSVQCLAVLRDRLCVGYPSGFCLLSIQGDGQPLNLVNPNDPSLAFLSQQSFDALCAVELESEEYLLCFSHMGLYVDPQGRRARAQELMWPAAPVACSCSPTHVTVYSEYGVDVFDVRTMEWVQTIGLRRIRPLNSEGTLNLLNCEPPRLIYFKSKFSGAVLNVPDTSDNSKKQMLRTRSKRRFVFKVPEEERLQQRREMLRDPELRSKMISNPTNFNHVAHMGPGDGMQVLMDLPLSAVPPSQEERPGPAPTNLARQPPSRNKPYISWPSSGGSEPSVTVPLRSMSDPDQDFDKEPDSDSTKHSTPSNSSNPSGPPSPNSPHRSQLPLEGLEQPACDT
Sequence of EPHA1 (P21709 26-976): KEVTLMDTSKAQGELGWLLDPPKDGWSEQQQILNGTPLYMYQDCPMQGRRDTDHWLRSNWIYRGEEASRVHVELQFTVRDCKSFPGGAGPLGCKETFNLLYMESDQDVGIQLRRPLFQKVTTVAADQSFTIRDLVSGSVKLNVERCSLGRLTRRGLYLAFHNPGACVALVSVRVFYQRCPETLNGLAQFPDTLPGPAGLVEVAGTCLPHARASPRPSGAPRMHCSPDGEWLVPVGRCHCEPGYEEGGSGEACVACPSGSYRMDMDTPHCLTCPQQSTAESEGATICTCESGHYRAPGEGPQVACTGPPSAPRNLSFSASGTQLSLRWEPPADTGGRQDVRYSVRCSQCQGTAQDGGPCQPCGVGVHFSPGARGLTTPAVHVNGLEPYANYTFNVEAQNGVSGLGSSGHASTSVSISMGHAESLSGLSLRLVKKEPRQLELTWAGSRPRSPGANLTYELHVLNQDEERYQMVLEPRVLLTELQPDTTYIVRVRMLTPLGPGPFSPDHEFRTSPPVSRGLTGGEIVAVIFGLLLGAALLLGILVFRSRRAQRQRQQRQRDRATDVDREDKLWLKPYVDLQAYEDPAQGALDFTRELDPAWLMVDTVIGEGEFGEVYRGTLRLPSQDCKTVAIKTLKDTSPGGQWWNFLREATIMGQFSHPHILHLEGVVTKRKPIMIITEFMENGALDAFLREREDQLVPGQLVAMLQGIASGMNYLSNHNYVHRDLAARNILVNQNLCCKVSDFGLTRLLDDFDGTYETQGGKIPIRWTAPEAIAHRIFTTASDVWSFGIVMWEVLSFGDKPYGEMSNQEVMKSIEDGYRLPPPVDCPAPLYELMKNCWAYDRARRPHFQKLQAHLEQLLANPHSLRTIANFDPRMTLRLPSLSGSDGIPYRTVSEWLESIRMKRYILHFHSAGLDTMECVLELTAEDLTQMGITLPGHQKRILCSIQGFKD
Sequence of STK32C/YANK3 (Q86UX6 whole entry): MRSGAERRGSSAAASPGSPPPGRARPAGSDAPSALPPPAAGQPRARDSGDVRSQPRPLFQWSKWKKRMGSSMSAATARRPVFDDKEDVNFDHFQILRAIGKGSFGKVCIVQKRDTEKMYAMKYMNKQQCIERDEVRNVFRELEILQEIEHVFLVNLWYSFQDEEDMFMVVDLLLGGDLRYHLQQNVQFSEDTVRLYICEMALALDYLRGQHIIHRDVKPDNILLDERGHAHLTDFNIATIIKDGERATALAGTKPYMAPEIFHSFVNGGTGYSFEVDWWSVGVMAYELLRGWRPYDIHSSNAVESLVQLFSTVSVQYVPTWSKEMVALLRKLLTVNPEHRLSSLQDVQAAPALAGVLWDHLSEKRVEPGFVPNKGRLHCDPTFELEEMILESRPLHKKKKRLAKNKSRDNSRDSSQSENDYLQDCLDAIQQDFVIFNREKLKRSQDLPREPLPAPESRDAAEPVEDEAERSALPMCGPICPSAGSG

`CCn1cnc2c(NCc3ccc(-c4ccccn4)nc3)nc(-c3ccc(N)nc3)nc21` [Example 53, N-([2,2′-bipyridin]-5-ylmethyl)-2-(6-aminopyridin-3-yl)-9-ethyl-9H-purin-6-amine] was tested, and the remaining activity at 10 µM (STK21/CIT) was 97.9%, the remaining activity at 10 µM (WNK3) was 74.5% and the remaining activity at 10 µM (PLK1) was 68.3%. For the same compound, the remaining activity at 10 µM (DCAMKL1) was 72.6%, the remaining activity at 10 µM (SIK1) was 56.3% and the remaining activity at 10 µM (CDK2/cyclin E2) was 9.78%. It also gave a remaining activity at 10 µM (EPHA1) of 13.2%, a remaining activity at 10 µM (PASK) of 96.3% and a remaining activity at 10 µM (SYK) of 48.4%. It also gave a remaining activity at 10 µM (PKCIOTA) of 86.1%, a remaining activity at 10 µM (EPHA2) of 42.3% and a remaining activity at 10 µM (EPHB3) of 66%. It also gave a remaining activity at 10 µM (ARAF) of 79.5%, a remaining activity at 10 µM (CK1d) of 10.2% and a remaining activity at 10 µM (MST3/STK24) of 47%. It also gave a remaining activity at 10 µM (SGK3/SGKL) of 92.6%, a remaining activity at 10 µM (FMS) of 35.4% and a remaining activity at 10 µM (ULK2) of 87.3%. The remaining activity at 10 µM (Aurora B) was 73%, the remaining activity at 10 µM (DYRK2) was 22.3% and the remaining activity at 10 µM (FES/FPS) was 6.37%. It also gave a remaining activity at 10 µM (PKCb1) of 89.9%, a remaining activity at 10 µM (CDK6/cyclin D2) of 51.5% and a remaining activity at 10 µM (VRK1) of 87.3%. For the same compound, the remaining activity at 10 µM (MRCKb/CDC42BPB) was 99.3%, the remaining activity at 10 µM (AKT1) was 94.9% and the remaining activity at 10 µM (CTK/MATK) was 87.6%. It also gave a remaining activity at 10 µM (MRCKa/CDC42BPA) of 96.6%, a remaining activity at 10 µM (PAK1) of 24.5% and a remaining activity at 10 µM (GRK2) of 99.1%. It also gave a remaining activity at 10 µM (CDK2/CYCLIN E) of 4.01%, a remaining activity at 10 µM (DMPK2) of 92.4% and a remaining activity at 10 µM (STK38L/NDR2) of 36.9%. The remaining activity at 10 µM (LKB1) was 0%, the remaining activity at 10 µM (PHKg2) was 56.9% and the remaining activity at 10 µM (BRK) was 46.6%. The remaining activity at 10 µM (STK32C/YANK3) was 86.7%, the remaining activity at 10 µM (GRK6) was 80.6% and the remaining activity at 10 µM (SGK1) was 84.9%.
